Source: patent US20260250325A1, “Antiviral Polypeptide Membrane Fusion Inhibitor, and Preparation Method and Application Thereof” (priority 2025, published 2026)
Where a SMILES comes first, the peptide text is derived from it. The star is where a group is joined. Succinyl(4-O-cholesteryl) = CC(C)CCC[C@@H](C)[C@H]1CC[C@H]2[C@@H]3CC=C4C[C@@H](OC(=O)CCC(=O)*)CC[C@]4(C)[C@H]3CC[C@]12C; X1 = CC(C)CCCC(C)C1CCC2C3CC=C4CC(OC(=O)CCC(=O)*)CCC4(C)C3CCC12C

Legend:
[1] = target: T1, hPIV-N51 (139-189) (Human parainfluenza 3 virus, UniProt P06828); experiment: SPR affinity to hPIV-N51 coupled on CM5 chip; assay type: binding
T1 construct: hPIV-N51 (139-189)
T1 sequence (P06828 139-189): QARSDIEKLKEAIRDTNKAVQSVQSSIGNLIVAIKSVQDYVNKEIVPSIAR
Protocol: hMPV and hPIV were two viruses having a typical Class I fusion protein-F protein. An F protein precursor F0 was cracked into F1 and F2 subunits. […] When the compound flowed through a chip surface, changes in an SPR signal were monitored in real time, binding and dissociation processes were recorded, and a binding rate constant (ka) and a dissociation rate constant (kd) were further obtained through kinetic analysis, thereby calculating an equilibrium dissociation constant (KD=kd/ka).
A CM5 chip with a catalog number 29149603, an amino coupling reagent kit with a catalog number BR100050, HBS-EP+Buffer (10×), sodium acetate (pH 4.0), and a 10 mM glycine-HCl buffer (pH 2.0) were all purchased from GE Health.
CM5 chip coupling: Channels 2 and 4 of the CM5 chip were activated for 7 min by using a freshly-prepared mixture of 50 mM Hydroxy succinimide (NHS) and 200 mM 1-(3-Dimethylaminopropyl)-3-ethylcarbodiimide (EDC) according to 1:1; and then, hMPV-N46 or hPIV-N51 was diluted and dissolved with sodium acetate with 4.0 pH to a concentration of 30 μM, with a flow rate of 10 μl/min and time of 600 s. An experimental buffer was HBS-EP+buffer (1×). Finally, the chip was blocked with 1 M ethanolamine. The instrument was set to a temperature of 25° C.
Affinity detection: the buffer used in the experiment was HBS-EP+buffer (1×), and a multi-cycle dynamic mode was used. Channels 1 and 3 of the chip served as blank reference channels; polypeptides to be detected sequentially flowed through Channels 2 and 4 at concentrations of 0 μM, 0.04 µM, 0.12 µM, 0.37 μM, 1.11 µM, 3.33 µM, 10 µM, and 30 μM; the flow rate was 30 μl/min, binding was performed for 180 s, and dissociation was performed for 120 s. Finally, the chip was regenerated by injecting 10 mM glycine (pH 2.0). The instrument was set to a temperature of 25° C.

[2] = test system: hMPV B1; assay type: cell-based; settings: Vero cells, plaque reduction
Protocol: (§1) African green monkey kidney cells (Vero) were sourced from the ATCC, with catalog number CCL-81. The cells were cultured in a DMEM culture solution in which 10% fetal bovine serum, 1% non-essential amino acids, 1% sodium pyruvate, 1% L-glutamine, 100 U/ml penicillin, and 100 μg/ml streptomycin were added.
(§2) A hMPV plaque experiment culture medium consisted of an Opti-MEM culture solution added with 1% non-essential amino acids, 100 U/mL penicillin, and 100 μg/mL streptomycin.
(§3) hMPV virus strains A2 and B1 were constructed by WuXi App Tec.
(§4) This study used a plaque reduction experiment to detect the in-vitro activity of a test sample against the hMPV virus strains A2 and B1.
(§5) The test sample and an experimental system were tested at 8 concentrations in duplicated wells. The Vero cells were digested with trypsin and then diluted to a concentration of 400,000 cells per milliliter by using a cell culture solution containing 2% serum. The diluted cells were added to a 96-well cell test board, with 100 μL per well, corresponding to 40000 cells per well. The cells were cultured overnight in a 37° C. incubator with 5% CO2.
(§6) On the second day, the test sample was diluted in an experimental culture medium at a fold ratio. The sample diluted at a fold ratio and an equal volume of virus (approximately 200 PFU per well) were well mixed and incubated at 33° C. in 5% CO2 for 1 h. Then, the culture solution in the 96-well cell test board was discarded, the sample virus mixed solution (100 μL) was added to the 96-well cell culture plate, and incubated at 37° C. in 5% CO2 for 2 hours. After 2 h, the sample virus mixed solution was discarded, 200 μL of an experiment culture medium containing the test sample with a corresponding concentration was added, and the culture solution contained 0.8% CMC and 5 μg/ml trypsin. A final concentration of DMSO in the culture solution was 0.5%. A system control antibody was directly added to the experiment culture solution containing 0.8% CMC and 5 μg/ml trypsin. A cell control (cells, without compound treatment or viral infection) and a viral control (cell infection virus, without compound treatment) were set. The cells were cultured for 1 day in the 33° C. incubator with 5% CO2.
(§7) The cells were fixed with 4% paraformaldehyde, and then permeabilization was performed with 0.5% Triton X-100. After the plate was washed with DPBS, a hMPV specific antibody (1:2000 dilution) was added and incubated at 37° C. for 1.5 h. Then, a secondary antibody (1:1000 dilution) was added and incubated at 37° C. for 1 hour. The secondary antibody was discarded, a TrueBlue solution was added, dyeing was performed for approximately 10 minutes; and the plate was washed with running water and then air-dried, and the number of spots in each well was counted by using a microplate imaging counter.
(§8) Raw data was used for analyzing the antiviral activity of the test samples. A calculation formula was shown as follows.
(§9) % inhibition rate=100−(sample value-cell control average value)/(virus control average value-cell control average value)×100
(§10) Non-linear fitting analysis was performed on the inhibition rate of the sample by using GraphPad Prism (version 10), so as to calculate an EC50 value for the sample. A fitting formula was log (inhibitor) vs. response-Variable slope (four parameters).

[3] = test system: hMPV A2; assay type: cell-based; settings: Vero cells, plaque reduction
Protocol: as §1, §2, §3, §4, §5, §6, §7, §8, §9, §10

[4] = Cytotoxicity test in HEp-2 cells (CCK8 cell viability); assay type: cell-based; settings: human; HEp-2 cells, CCK8, 1 day; read-out: CC50
How it was run: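 Compound dilutions (final DMSO 0.5%) were applied for 1 day to HEp-2 cells plated at 30,000 per well the day before. CCK8 signal gave survival relative to cell and medium controls, and a four-parameter log(inhibitor)-response fit yielded CC50.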

Row | Compound | Kd [1] [nM] | EC50 [2] [nM] | EC50 [3] [nM] | CC50 at 1 day [4] [nM]
1 | CC[C@H](C)[C@H](NC(=O)[C@H](CCCCN)NC(=O)[C@H](CCCCN)NC(=O)[C@H](CC(C)C)NC(=O)[C@H](CO)NC(=O)[C@H](CCC(=O)O)NC(=O)[C@H](CCC(=O)O)NC(=O)[C@@H](NC(=O)[C@H](CCCCN)NC(=O)[C@H](CCCCN)NC(=O)[C@H](CC(N)=O)NC(=O)[C@@H](NC(=O)[C@H](CCC(=O)O)NC(=O)[C@H](CCC(=O)O)NC(=O)[C@@H](NC(=O)[C@H](CCCCN)NC(=O)[C@H](CCCCN)NC(=O)[C@H](CC(=O)O)NC(=O)[C@H](Cc1ccccc1)NC(=O)[C@H](CCC(=O)O)NC(=O)[C@H](CC(=O)O)NC(=O)[C@H](Cc1c[nH]c2ccccc12)NC(C)=O)[C@@H](C)CC)C(C)C)[C@@H](C)CC)C(=O)N[C@@H](CCC(=O)O)C(=O)N[C@@H](CCC(=O)O)C(=O)N[C@@H](CO)C(=O)N[C@@H](CC(=O)O)C(=O)N[C@@H](CCCCN)C(=O)N[C@@H](CCCCN)C(=O)N[C@@H](CC(C)C)C(=O)N[C@@H](CCC(=O)O)C(=O)N[C@@H](C)C(=O)N[C@@H](C)C(=O)N[C@@H](C)C(=O)N[C@@H](CCCCN)C(=O)N[C@@H](CCCCNC(=O)CCC(=O)O[C@H]1CC[C@@]2(C)C(=CC[C@H]3[C@@H]4CC[C@H]([C@H](C)CCCC(C)C)[C@@]4(C)CC[C@@H]32)C1)C(N)=O [Compound 13] (Ac-WDEFDKKIEEVNKKIEESLKKIEESDKKLEAAAKK(Succinyl(4-O-cholesteryl))-NH2) | 2280 | 6.18 | 11.7 | 30700
2 | CC[C@H](C)[C@H](NC(=O)[C@H](CCCCN)NC(=O)[C@H](CCCCN)NC(=O)[C@H](CC(C)C)NC(=O)[C@H](CO)NC(=O)[C@H](CCC(=O)O)NC(=O)[C@H](CCC(=O)O)NC(=O)[C@@H](NC(=O)[C@H](CCCCN)NC(=O)[C@H](CCCCN)NC(=O)[C@H](CC(N)=O)NC(=O)[C@@H](NC(=O)[C@H](CCC(=O)O)NC(=O)[C@H](CCC(=O)O)NC(=O)[C@@H](NC(=O)[C@H](CCCCN)NC(=O)[C@H](CCCCN)NC(=O)[C@H](CCCCN)NC(=O)[C@H](CC(=O)O)NC(=O)[C@H](Cc1ccccc1)NC(=O)[C@H](CCC(=O)O)NC(=O)[C@H](CC(=O)O)NC(C)=O)[C@@H](C)CC)C(C)C)[C@@H](C)CC)C(=O)N[C@@H](CCC(=O)O)C(=O)N[C@@H](CCC(=O)O)C(=O)N[C@@H](CO)C(=O)N[C@@H](CC(=O)O)C(=O)N[C@@H](CCCCN)C(=O)N[C@@H](CCCCN)C(=O)N[C@@H](CC(C)C)C(=O)N[C@@H](CCC(=O)O)C(=O)N[C@@H](CCC(=O)O)C(=O)N[C@H](C(=O)NCC(=O)N[C@@H](CO)C(=O)NCC(=O)N[C@@H](CO)C(=O)NCC(=O)N[C@@H](CCCCNC(=O)CCC(=O)O[C@H]1CC[C@@]2(C)C(=CC[C@H]3[C@@H]4CC[C@H]([C@H](C)CCCC(C)C)[C@@]4(C)CC[C@@H]32)C1)C(N)=O)C(C)C [Compound 15] (Ac-DEFDKKKIEEVNKKIEESLKKIEESDKKLEEVGSGSGK(Succinyl(4-O-cholesteryl))-NH2) | 1390 | 5.18 | 17.9 | 8900
3 | CC[C@H](C)[C@H](NC(=O)[C@H](CCCCN)NC(=O)[C@H](CCCCN)NC(=O)[C@H](CC(C)C)NC(=O)[C@H](CO)NC(=O)[C@H](CCC(=O)O)NC(=O)[C@H](CCC(=O)O)NC(=O)[C@@H](NC(=O)[C@H](CCCCN)NC(=O)[C@H](CCCCN)NC(=O)[C@H](CC(N)=O)NC(=O)[C@@H](NC(=O)[C@H](CCC(=O)O)NC(=O)[C@H](CCC(=O)O)NC(=O)[C@@H](NC(=O)[C@H](CCCCN)NC(=O)[C@H](CCCCN)NC(=O)[C@H](CC(=O)O)NC(=O)[C@H](Cc1ccccc1)NC(=O)[C@H](CCC(=O)O)NC(=O)[C@H](CC(=O)O)NC(=O)[C@H](CO)NC(C)=O)[C@@H](C)CC)C(C)C)[C@@H](C)CC)C(=O)N[C@@H](CCC(=O)O)C(=O)N[C@@H](CCC(=O)O)C(=O)N[C@@H](CO)C(=O)N[C@@H](CC(=O)O)C(=O)N[C@@H](CCCCN)C(=O)N[C@@H](CCCCN)C(=O)N[C@@H](CC(C)C)C(=O)N[C@@H](CCC(=O)O)C(=O)N[C@@H](C)C(=O)N[C@@H](C)C(=O)N[C@@H](C)C(=O)N[C@@H](CCCCN)C(=O)N[C@@H](CCCCNC(=O)CCC(=O)O[C@H]1CC[C@@]2(C)C(=CC[C@H]3[C@@H]4CC[C@H]([C@H](C)CCCC(C)C)[C@@]4(C)CC[C@@H]32)C1)C(N)=O [Compound 16] (Ac-SDEFDKKIEEVNKKIEESLKKIEESDKKLEAAAKK(Succinyl(4-O-cholesteryl))-NH2) | 5400 | 4.5 | 7.35 | 17100
4 | CC[C@H](C)[C@H](NC(=O)[C@H](CCCCN)NC(=O)[C@H](CCCCN)NC(=O)[C@H](CC(C)C)NC(=O)[C@H](CO)NC(=O)[C@H](CCC(=O)O)NC(=O)[C@H](CCC(=O)O)NC(=O)[C@@H](NC(=O)[C@H](CCCCN)NC(=O)[C@H](CCCCN)NC(=O)[C@H](CC(N)=O)NC(=O)[C@@H](NC(=O)[C@H](CCC(=O)O)NC(=O)[C@H](CCC(=O)O)NC(=O)[C@@H](NC(=O)[C@H](CCCCN)NC(=O)[C@H](CCCCN)NC(=O)[C@H](CC(=O)O)NC(=O)[C@H](Cc1ccccc1)NC(=O)[C@H](CCC(=O)O)NC(=O)[C@H](CC(=O)O)NC(C)=O)[C@@H](C)CC)C(C)C)[C@@H](C)CC)C(=O)N[C@@H](CCC(=O)O)C(=O)N[C@@H](CCC(=O)O)C(=O)N[C@@H](CO)C(=O)N[C@@H](CC(=O)O)C(=O)N[C@@H](CCCCN)C(=O)N[C@@H](CCCCN)C(=O)N[C@@H](CC(C)C)C(=O)N[C@@H](CCC(=O)O)C(=O)N[C@@H](CCC(=O)O)C(=O)N[C@H](C(=O)N[C@@H](CCC(=O)O)C(=O)N[C@@H](C)C(=O)N[C@@H](C)C(=O)N[C@@H](C)C(=O)N[C@@H](CCCCN)C(=O)N[C@@H](CCCCNC(=O)CCC(=O)OC1CCC2(C)C(=CCC3C2CCC2(C)C(C(C)CCCC(C)C)CCC32)C1)C(N)=O)C(C)C (stereo partly drawn) [Compound 21] (Ac-DEFDKKIEEVNKKIEESLKKIEESDKKLEEVEAAAKK(X1)-NH2) | – | 4.92 | 11.2 | 18300
5 | Ac-SLEQVNEKINQSLAFIRKSDEINQSDEEVNKSDELLEAAAKK-NH2 [Compound 50] | – | 5.95 | 13.3 | 32600
